Data: PubChem BioAssay AID1963440 (Molecular Pharmacology Branch, DTP, NCI, 2024)
Several values for one entry are separate records, joined by “and”; a condition that tells them apart may be missing. Identical values can stand only once.

Tested on: NCI-H1417 complex spheroids, growth % test/control
Assay: Anticancer human tumor NCI-H1417 cell line growth inhibition [Asc];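 note: spheroids exposed to compounds for 7 days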;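 for viability, T/C: 100% = DMSO vehicle control wells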
Conditions: for viability, T/C: stronger effect = lower value
Method in brief: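 Complex spheroids combining tumor cells with HUVEC endothelial cells and human MSCs, at 37 degrees C, 5% CO2; agents tested alone or combined, half-log dilutions from at or near clinical Cmax, or 10 microM if Cmax unknown.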

[1] = curve of first compound, second compound 0.03 µM
[2] = curve of first compound, second compound 0.0949 µM
[3] = curve of first compound, second compound 0.3 µM
[4] = curve of first compound, second compound 0.949 µM
[5] = curve of first compound, second compound 3 µM
[6] = second compound 0.03 µM, first compound 0.0316 µM
[7] = second compound 0.03 µM, first compound 0.1 µM
[8] = second compound 0.03 µM, first compound 0.316 µM
[9] = second compound 0.03 µM, first compound 1 µM
[10] = second compound 0.03 µM, first compound 3.16 µM
[11] = second compound 0.03 µM, first compound 10 µM
[12] = second compound 0.0949 µM, first compound 0.0316 µM
[13] = second compound 0.0949 µM, first compound 0.1 µM
[14] = second compound 0.0949 µM, first compound 0.316 µM
[15] = second compound 0.0949 µM, first compound 1 µM
[16] = second compound 0.0949 µM, first compound 3.16 µM
[17] = second compound 0.0949 µM, first compound 10 µM
[18] = second compound 0.3 µM, first compound 0.0316 µM
[19] = second compound 0.3 µM, first compound 0.1 µM
[20] = second compound 0.3 µM, first compound 0.316 µM
[21] = second compound 0.3 µM, first compound 1 µM
[22] = second compound 0.3 µM, first compound 3.16 µM
[23] = second compound 0.3 µM, first compound 10 µM
[24] = second compound 0.949 µM, first compound 0.0316 µM
[25] = second compound 0.949 µM, first compound 0.1 µM
[26] = second compound 0.949 µM, first compound 0.316 µM
[27] = second compound 0.949 µM, first compound 1 µM
[28] = second compound 0.949 µM, first compound 3.16 µM
[29] = second compound 0.949 µM, first compound 10 µM
[30] = second compound 3 µM, first compound 0.0316 µM
[31] = second compound 3 µM, first compound 0.1 µM
[32] = second compound 3 µM, first compound 0.316 µM
[33] = second compound 3 µM, first compound 1 µM
[34] = second compound 3 µM, first compound 3.16 µM
[35] = second compound 3 µM, first compound 10 µM

Row | IC50 [1] [µM] | IC50 [2] [µM] | IC50 [3] [µM] | IC50 [4] [µM] | IC50 [5] [µM] | SMILES | viability, T/C [6] [%] | viability, T/C [7] [%] | viability, T/C [8] [%] | viability, T/C [9] [%] | viability, T/C [10] [%] | viability, T/C [11] [%] | viability, T/C [12] [%] | viability, T/C [13] [%] | viability, T/C [14] [%] | viability, T/C [15] [%] | viability, T/C [16] [%] | viability, T/C [17] [%] | viability, T/C [18] [%] | viability, T/C [19] [%] | viability, T/C [20] [%] | further results
1 |  |  |  |  |  | COc1c(OCCCN2CCOCC2)ccc2c3n(c(=NC(=O)c4cnc(N)nc4)nc12)CCN3 |  |  |  |  |  |  |  |  |  |  |  |  |  |  |  | viability, T/C (compound 0.00316 µM): 94.5% and 101% and 96.7%; viability, T/C (compound 0.01 µM): 100% and 96.2% and 99%; viability, T/C (compound 0.0316 µM): 82.9% and 83.8% and 91.8%; viability, T/C (compound 0.1 µM): 76.9% and 73.8% and 90.3%; viability, T/C (compound 0.316 µM): 69% and 70.4% and 77.1%; viability, T/C (compound 1 µM): 54.8% and 47.9% and 64%; IC50 (curve of compound): > 1 µM
2 | 3.58 | 3.25 | 3.33 | 2.77 | 2.25 | C=C(F)C(=O)N1CCN(c2nc(OCC3CCCN3C)nc3c2CCN(c2cccc4cccc(Cl)c24)C3)CC1CC#N (configuration not stated) + CCN1C(C(=O)NC23CCC(C(=O)O)(CC2)CC3)C(c2cccc(Cl)c2F)C2(C(=O)Nc3cc(Cl)ccc32)C12CCCCC2 | 107 | 111 | 102 | 95.4 | 55.8 | 0.19 | 97.9 | 93.6 | 100 | 91 | 51.3 | 0.19 | 103 | 98.5 | 97.4 | viability, T/C [21]: 87%; viability, T/C [22]: 52.3%; viability, T/C [23]: 0.17%; viability, T/C [24]: 100%; viability, T/C [25]: 102%; viability, T/C [26]: 85.5%; viability, T/C [27]: 82.4%; viability, T/C [28]: 44.9%; viability, T/C [29]: 0.19%; viability, T/C [30]: 93.3%; viability, T/C [31]: 89.9%; viability, T/C [32]: 86.1%; viability, T/C [33]: 79.1%; viability, T/C [34]: 37.8%; viability, T/C [35]: 0.4%
3 | > 10 | > 10 | > 10 | > 10 | > 10 | C=CC(=O)N1CCN(c2nc(=O)n(-c3c(C)ccnc3C(C)C)c3nc(-c4c(O)cccc4F)c(F)cc23)C(C)C1 (configuration not stated) + CCN1C(C(=O)NC23CCC(C(=O)O)(CC2)CC3)C(c2cccc(Cl)c2F)C2(C(=O)Nc3cc(Cl)ccc32)C12CCCCC2 | 94.4 | 100 | 109 | 101 | 115 | 105 | 102 | 94.4 | 98.4 | 101 | 104 | 119 | 102 | 107 | 106 | viability, T/C [21]: 94.3%; viability, T/C [22]: 99.8%; viability, T/C [23]: 112%; viability, T/C [24]: 94.3%; viability, T/C [25]: 95.4%; viability, T/C [26]: 93.1%; viability, T/C [27]: 97.9%; viability, T/C [28]: 95.5%; viability, T/C [29]: 99.5%; viability, T/C [30]: 91.6%; viability, T/C [31]: 93.2%; viability, T/C [32]: 98.5%; viability, T/C [33]: 93.7%; viability, T/C [34]: 93.4%; viability, T/C [35]: 103%
